Test results from ChEMBL document CHEMBL3885881, “DrugMatrix”.
Several values for one entry are separate records, joined by “and”; a condition that tells them apart may be missing. Identical values can stand only once.

Organism: Rattus norvegicus
Test: DrugMatrix - Regimen: Daily Repeat
Assay type: toxicity, organism-based, Sprague-Dawley
Set-up: regimen Daily Repeat, gender Male, age 6-8 weeks
Details: in vivo, iv; for ABSOLUTE BASOPHIL / ABSOLUTE EOSINOPHIL / ABSOLUTE LYMPHOCYTE / ABSOLUTE MONOCYTE / ABSOLUTE SEGMENTED NEUTROPHIL / BASOPHIL / EOSINOPHIL / ERYTHROCYTE COUNT / HEMATOCRIT / HEMOGLOBIN / LEUKOCYTE COUNT / LYMPHOCYTE / MEAN CORPUSCULAR HEMOGLOBIN / MEAN CORPUSCULAR HEMOGLOBIN CONCENTRATION / MEAN CORPUSCULAR VOLUME / MONOCYTE / NEUTROPHIL / NUCLEATED RED BLOOD CELLS / PLATELET COUNT: tissue Blood; for ALANINE AMINOTRANSFERASE / ALBUMIN / ALKALINE PHOSPHATASE / ASPARTATE AMINOTRANSFERASE / BLOOD UREA NITROGEN / CARBON DIOXIDE / CHLORIDE / CHOLESTEROL / CREATINE PHOSPHOKINASE / CREATININE / GLUCOSE / LACTATE DEHYDROGENASE / LIPASE / PHOSPHORUS / POTASSIUM / SODIUM / TOTAL BILIRUBIN / TOTAL PROTEIN / URIC ACID: tissue Plasma
[1] = 0 mg/kg, 72 h, dose level Control, time 3 day, vehicle 100 % SALINE
[2] = 0 mg/kg, 120 h, dose level Control, time 5 day, vehicle 10 % DMSO/SALINE
[3] = 0 mg/kg, 120 h, dose level Control, time 5 day, vehicle 100 % SALINE
[4] = 0 mg/kg, […], dose level Control, time 14 day, vehicle 100 % SALINE
[5] = 4 mg/kg, 120 h, dose level High, time 5 day, vehicle 10 % DMSO/SALINE

## CC(=O)[C@]1(O)Cc2c(O)c3c(c(O)c2[C@@H](O[C@H]2C[C@H](N)[C@H](O)[C@H](C)O2)C1)C(=O)c1ccccc1C3=O [IDARUBICIN]
[1]
  ABSOLUTE BASOPHIL: 0 CELLS/uL
  ABSOLUTE EOSINOPHIL: 247.67 CELLS/uL
  ABSOLUTE LYMPHOCYTE: 13190.83 CELLS/uL
  ABSOLUTE MONOCYTE: 307.67 CELLS/uL
  ABSOLUTE SEGMENTED NEUTROPHIL: 1220.5 CELLS/uL
  BASOPHIL: 0%
  EOSINOPHIL: 1.67%
  ERYTHROCYTE COUNT: 5.47 x10E6/uL
  HEMATOCRIT: 33.98%
  HEMOGLOBIN: 12.65 G/DL
  LEUKOCYTE COUNT: 14.97 x10E3/uL
  LYMPHOCYTE: 88.17%
  MEAN CORPUSCULAR HEMOGLOBIN: 23.17 pg
  MEAN CORPUSCULAR HEMOGLOBIN CONCENTRATION: 37.23 G/DL
  MEAN CORPUSCULAR VOLUME: 62.25 fL
  MONOCYTE: 2%
  NEUTROPHIL: 8.17%
  NUCLEATED RED BLOOD CELLS: 0 /100WBC
  PLATELET COUNT: 1307.17 x10E3/uL
  ALANINE AMINOTRANSFERASE: 39.67 u/L
  ALBUMIN: 4.08 G/DL
  ALKALINE PHOSPHATASE: 383.17 u/L
  ASPARTATE AMINOTRANSFERASE: 88.83 u/L
  BLOOD UREA NITROGEN: 18.5 mg/dL
  CARBON DIOXIDE: 27.5 mmol/L
  CHLORIDE: 103 MEQ/L
  CHOLESTEROL: 67.33 mg/dL
  CREATINE PHOSPHOKINASE: 414.67 u/L
  CREATININE: 0.19 mg/dL
  GLUCOSE: 149.33 mg/dL
  LACTATE DEHYDROGENASE: 536.83 u/L
  LIPASE: 8.83 u/L
  PHOSPHORUS: 11.13 mg/dL
  POTASSIUM: 6.23 MEQ/L
  SODIUM: 144.42 MEQ/L
  TOTAL BILIRUBIN: 0.18 mg/dL
  TOTAL PROTEIN: 5.57 G/DL
  URIC ACID: 1.23 mg/dL
[2]
  BASOPHIL: 0.28%
  EOSINOPHIL: 0.55%
  ERYTHROCYTE COUNT: 7.09 x10E6/uL
  HEMATOCRIT: 45.85%
  HEMOGLOBIN: 14.93 G/DL
  LEUKOCYTE COUNT: 7.4 x10E3/uL
  LYMPHOCYTE: 84.22%
  MEAN CORPUSCULAR HEMOGLOBIN: 21.05 pg
  MEAN CORPUSCULAR HEMOGLOBIN CONCENTRATION: 32.5 G/DL
  MEAN CORPUSCULAR VOLUME: 64.72 fL
  MONOCYTE: 1.4%
  NEUTROPHIL: 12.45%
  PLATELET COUNT: 1476.75 x10E3/uL
  ALANINE AMINOTRANSFERASE: 21.25 u/L
  ALBUMIN: 4.28 G/DL
  ALKALINE PHOSPHATASE: 337.5 u/L
  ASPARTATE AMINOTRANSFERASE: 87.25 u/L
  BLOOD UREA NITROGEN: 13 mg/dL
  CARBON DIOXIDE: 27 mmol/L
  CHLORIDE: 106.75 MEQ/L
  CHOLESTEROL: 54.5 mg/dL
  CREATINE PHOSPHOKINASE: 424.75 u/L
  CREATININE: 0.47 mg/dL
  GLUCOSE: 135.75 mg/dL
  LACTATE DEHYDROGENASE: 200.25 u/L
  LIPASE: 9 u/L
  PHOSPHORUS: 11.62 mg/dL
  POTASSIUM: 5.58 MEQ/L
  SODIUM: 150.5 MEQ/L
  TOTAL BILIRUBIN: 0.25 mg/dL
  TOTAL PROTEIN: 6.33 G/DL
  URIC ACID: 1.75 mg/dL
[3]
  ABSOLUTE SEGMENTED NEUTROPHIL: 1104.67 CELLS/uL
  BASOPHIL: 1.05% and 0%
  EOSINOPHIL: 0.23% and 1%
  ERYTHROCYTE COUNT: 6.68 x10E6/uL and 5.73 x10E6/uL
  HEMATOCRIT: 42.27% and 36.85%
  HEMOGLOBIN: 13 G/DL and 13.67 G/DL
  LEUKOCYTE COUNT: 19.36 x10E3/uL and 15.13 x10E3/uL
  LYMPHOCYTE: 62.82% and 89.5%
  MEAN CORPUSCULAR HEMOGLOBIN: 19.43 pg and 23.87 pg
  MEAN CORPUSCULAR HEMOGLOBIN CONCENTRATION: 30.68 G/DL and 37.1 G/DL
  MEAN CORPUSCULAR VOLUME: 63.25 fL and 64.33 fL
  MONOCYTE: 3.45% and 2.33%
  NUCLEATED RED BLOOD CELLS: 0.17 /100WBC
  PLATELET COUNT: 1275.5 x10E3/uL and 1266 x10E3/uL
  ALANINE AMINOTRANSFERASE: 62.75 u/L and 49.17 u/L
  ALBUMIN: 3.2 G/DL and 4.22 G/DL
  ALKALINE PHOSPHATASE: 320.75 u/L and 352.67 u/L
  ASPARTATE AMINOTRANSFERASE: 112.25 u/L and 95.17 u/L
  BLOOD UREA NITROGEN: 14.25 mg/dL and 18.83 mg/dL
  CARBON DIOXIDE: 36.25 mmol/L and 25.67 mmol/L
  CHLORIDE: 106.25 MEQ/L and 102.67 MEQ/L
  CHOLESTEROL: 63.5 mg/dL and 66.83 mg/dL
  CREATINE PHOSPHOKINASE: 757.75 u/L and 550.33 u/L
  CREATININE: 0.23 mg/dL
  GLUCOSE: 175.5 mg/dL and 186.17 mg/dL
  LACTATE DEHYDROGENASE: 205.25 u/L and 471.33 u/L
  PHOSPHORUS: 11.35 mg/dL and 12.3 mg/dL
  POTASSIUM: 6.7 MEQ/L and 6.35 MEQ/L
  SODIUM: 151.25 MEQ/L and 143.57 MEQ/L
  TOTAL BILIRUBIN: 0.2 mg/dL and 0.18 mg/dL
  TOTAL PROTEIN: 5.78 G/DL and 6.05 G/DL
  URIC ACID: 1.23 mg/dL and 2 mg/dL
[4]
  ABSOLUTE BASOPHIL: 400 cells/µL
  ABSOLUTE EOSINOPHIL: 46.7 cells/µL
  ABSOLUTE LYMPHOCYTE: 18600 cells/µL
  ABSOLUTE MONOCYTE: 760 cells/µL
  BASOPHIL: 1.73%
  EOSINOPHIL: 0.2%
  ERYTHROCYTE COUNT: 7.04 x10E6/uL
  HEMATOCRIT: 41.83%
  HEMOGLOBIN: 13.07 G/DL
  LEUKOCYTE COUNT: 24.9 x10E3/uL
  LYMPHOCYTE: 74.43%
  MEAN CORPUSCULAR HEMOGLOBIN: 18.63 pg
  MEAN CORPUSCULAR HEMOGLOBIN CONCENTRATION: 31.33 G/DL
  MEAN CORPUSCULAR VOLUME: 59.43 fL
  MONOCYTE: 3.13%
  NEUTROPHIL: 18.97%
  PLATELET COUNT: 1314.33 x10E3/uL
  ALANINE AMINOTRANSFERASE: 42.67 u/L
  ALBUMIN: 3.6 G/DL
  ALKALINE PHOSPHATASE: 298 u/L
  ASPARTATE AMINOTRANSFERASE: 67.33 u/L
  BLOOD UREA NITROGEN: 14.33 mg/dL
  CARBON DIOXIDE: 41.67 mmol/L
  CHLORIDE: 102.67 MEQ/L
  CHOLESTEROL: 62.67 mg/dL
  CREATINE PHOSPHOKINASE: 338.67 u/L
  CREATININE: 0.7 mg/dL
  GLUCOSE: 147.33 mg/dL
  LACTATE DEHYDROGENASE: 94.33 u/L
  LIPASE: 80 u/L
  PHOSPHORUS: 9.6 mg/dL
  POTASSIUM: 6.67 MEQ/L
  SODIUM: 148 MEQ/L
  TOTAL BILIRUBIN: 0.2 mg/dL
  TOTAL PROTEIN: 6.67 G/DL
  URIC ACID: 1.03 mg/dL
[5]
  BASOPHIL: 0.8%
  EOSINOPHIL: 2.95%
  ERYTHROCYTE COUNT: 7.46 x10E6/uL
  HEMATOCRIT: 47.3%
  HEMOGLOBIN: 15.42 G/DL
  LEUKOCYTE COUNT: 0.0975 x10E3/uL
  LYMPHOCYTE: 69%
  MEAN CORPUSCULAR HEMOGLOBIN: 20.73 pg
  MEAN CORPUSCULAR HEMOGLOBIN CONCENTRATION: 32.67 G/DL
  MEAN CORPUSCULAR VOLUME: 63.45 fL
  MONOCYTE: 1.3%
  NEUTROPHIL: 23.9%
  PLATELET COUNT: 879.25 x10E3/uL
  ALANINE AMINOTRANSFERASE: 11.75 u/L
  ALBUMIN: 2.88 G/DL
  ALKALINE PHOSPHATASE: 156 u/L
  ASPARTATE AMINOTRANSFERASE: 63.5 u/L
  BLOOD UREA NITROGEN: 18 mg/dL
  CARBON DIOXIDE: 25 mmol/L
  CHLORIDE: 112 MEQ/L
  CHOLESTEROL: 152.75 mg/dL
  CREATINE PHOSPHOKINASE: 475.25 u/L
  CREATININE: 0.5 mg/dL
  GLUCOSE: 116.5 mg/dL
  LACTATE DEHYDROGENASE: 183.5 u/L
  LIPASE: 13 u/L
  PHOSPHORUS: 9.47 mg/dL
  POTASSIUM: 5.03 MEQ/L
  SODIUM: 151 MEQ/L
  TOTAL BILIRUBIN: 0.2 mg/dL
  TOTAL PROTEIN: 4.57 G/DL
  URIC ACID: 1.45 mg/dL
